The source of these data is EP0053029A1, “Non enkephalin-like peptides, their production, compositions containing them, and their medical and veterinary use” (PENINSULA LABORATORIES INCORPORATED, priority 1980, dated 1982).

Where “and” joins values, the source holds several entries; their conditions need not be identical. Identical values can stand only once. Where a SMILES comes first, the peptide text is derived from it. [ ]: non-standard residue; d: D form. NMeF = CN[C@@H](Cc1ccccc1)C(=O)O; Thz = O=C(O)[C@@H]1CSCN1

The subject of this data set is rat. The experiment in a line: rat tail withdrawal assay (hot water, 55°C). As to conditions: for analgesic activity: general statement, route and dose not stated. It counts as in vivo. As for the experimental part: The acetate salts of formula I described in Examples 1 to 3 were tested for analgesic activity in the rat tail withdrawal assay. […] Latencies of 5 seconds or greater indicate strong analgesic activity and 20 seconds is a maximum response in this test. The peptides were administered intracisternally or intravenously.
The formula I acetate of Example 2 was dissolved in a sufficient sterile, distilled water to give an injection volume of 1 ml/kg of body weight and administered to rats as a bolus i.v. injection at several dosages.

As to `NC(=O)[C@@H]1CSCN1C(=O)[C@H](Cc1ccccc1)NC(=O)[C@@H]1CCCN1C(=O)[C@@H](N)Cc1ccc(O)cc1` [Example 1, L-Tyrosyl-L-Prolyl-L-Phenylalanyl-L-Thiazolidine-4-carboxyl·amide Acetate] (H-YPF[Thz]-NH2), the analgesic activity result is recorded as “high analgesic activity”.
In the case of `CN(C(=O)[C@@H]1CCCN1C(=O)[C@@H](N)Cc1ccc(O)cc1)[C@@H](Cc1ccccc1)C(=O)N1CCC[C@@H]1C(N)=O` [Example 2, L-Tyrosyl-L-Prolyl-N-Methyl-L-Phenylalanyl-D-Prolinamide-Acetate] (H-YP[NMeF][dP]-NH2), the “Latency of Tail Withdrawal” value (i.v. bolus, 2.5 mg/kg, 5 min. after injection) amounted to 2 s; the “Latency of Tail Withdrawal” value (i.v. bolus, 5.0 mg/kg, 5 min. after injection) was 8.4 ± 3.6 s; the “Latency of Tail Withdrawal” value (i.v. bolus, 10.0 mg/kg, 5 min. after injection) was found to be 10.2 ± 3.2 s; the “Latency of Tail Withdrawal” value (i.v. bolus, 10.0 mg/kg, 15 min. after injection) came out at 11.1 ± 3.1 s; the “Latency of Tail Withdrawal” value (i.v. bolus, 10.0 mg/kg, 30 min. after injection) was found to be 7.5 ± 2.5 s; the “Latency of Tail Withdrawal” value (i.v. bolus, 10.0 mg/kg, 60 min. after injection) stood at 6.4 ± 2.3 s. Further, the “Latency of Tail Withdrawal” value runs as follows: (i.v., 2.5 mg/kg, 15 min. after injection) 3.5 s; (i.v., 2.5 mg/kg, 30 min. after injection) 3.0 s; (i.v., 2.5 mg/kg, 60 min. after injection) 2.5 s; (i.v., 5.0 mg/kg, 15 min. after injection) 10.3 ± 3.1 s; (i.v., 5.0 mg/kg, 30 min. after injection) 9.1 ± 3.4 s; (i.v., 5.0 mg/kg, 60 min. after injection) 7.8 ± 3.0 s. Moreover, the Comments result (i.v., 5.0 mg/kg, observed behaviour) was “Individual rats showed 20 sec. latencies and morphine-like symptoms”.
As to `CN(C(=O)[C@@H]1CCCN1C(=O)[C@@H](N)Cc1ccc(O)cc1)[C@@H](Cc1ccccc1)C(=O)N1CCC[C@@H]1CO` [Example 3, L-Tyrosyl-L-Prolyl-N-Methyl-L-Phenylalanyl-D-Prolinol· Acetate], the analgesic activity entry is recorded as “high analgesic activity”.
For the molecule `CN(C(=O)[C@@H]1CSCN1C(=O)[C@@H](N)Cc1ccc(O)cc1)[C@@H](Cc1ccccc1)C(=O)N1CCC[C@@H]1C(N)=O` [Tyr-Thz-N-Me-Phe-D-Pro-NFi2] (H-Y[Thz][NMeF][dP]-NH2), the analgesic activity entry is “high analgesic activity”.
For the molecule `CN1CC[C@]23c4c5ccc(O)c4O[C@H]2[C@@H](O)C=C[C@H]3[C@H]1C5` [morphine, reference compound], the “Latency of Tail Withdrawal” value runs as follows: (rat, in vivo, iv, 2.5 mg/kg) 5 s and 6 s and 4.1 s; (rat, in vivo, iv, 5 mg/kg) 20 s; (rat, in vivo, iv, 7.5 mg/kg) 20 s. Where the note is “rat, in vivo, iv, 5 mg/kg”, the Comments result is listed as “Catalepsy Rigidity”.
